Laboratory results published in US20120053534A1, “INTRAVAGINAL DEVICES COMPRISING ANTICHOLINERGIC AGENTS, AND METHODS OF MAKING THEREOF” (priority 2010, published 2012).

Assay: in vivo
Details: female, dog, plasma, po, 10 mg/day
Protocol: A study was conducted to determine the levels of oxybutynin and its active metabolite, N-desethyloxybutynin, present in plasma following oral and intravaginal administration of oxybutynin in dogs.
A 14 day study was conducted, where 8 young adult females were randomly assigned to 4 groups of 2 dogs each.

## CCN(CC)CC#CCOC(=O)C(O)(c1ccccc1)C1CCCCC1 (stereo not shown) [oxybutynin, 4-diethylaminobut-2-ynyl2-cyclohexyl-2-hydroxy-2-phenyl-ethanoate]
  Cmax: ~17.9 ng/mL
